How the values were obtained:
Type in all cases: in vivo, human
CRP = CRP value by latex agglutination assay in a patient given Pimobendan orally
Experimental: (§1) 2-(4-Methoxyphenyl)-5-(5-methyl-3-oxo-4,5-dihydro-2H-6-pyridazinyl)-benzimidazole (hereunder referred to as imobendan was orally administered to a patient who suffered from heart failure while malignant articular rheumatism set in as a complication and the CRP value thereof was determined with the elapse of time.
The CRP value was determined by the latex agglutination assay disclosed in Senju Osamu, et al.: J. Clin. Lab. Immunol. 19:99-103(1986) according to a method identical to that disclosed in Claus David R. et al.: J. Lab. Clin. Med. 87:120-128(1976).
When Pimobendan was administered to the patient in a dose of 1.25 mg, the CRP value thereof was reduced and therefore, the compound was administered in a dose of 1.25 mg twice a day on and after the next day (this was defined to be the day at which the administration was initiated).
(§2) Thus, the administration of Pimobendan was discontinued. Thereafter, Pimobendan was again administered to the patient in a dose of 1.25 mg twice a day to confirm the effect of the drug to reduce the CRP value.

heart function = test: Echocardiography of the patient; conditions: patient with heart failure, 1.25 mg twice a day
[1] = test system: inflammation due to the malignant articular rheumatism; test: Inflammation due to malignant articular rheumatism in the patient; conditions: re-administration, 1.25 mg twice a day
Experimental: as §1, §2

## COc1ccc(-c2nc3ccc(C4=NNC(=O)CC4C)cc3[nH]2)cc1 (centres unmarked) [Pimobendan, 2-(4-Methoxyphenyl)-5-(5-methyl-3-oxo-4,5-dihydro-2H-6-pyridazinyl)-benzimidazole]
CRP; after first dose of 1.25 mg, value prior to administration 4.7 mg/dl
  CRP value (change): reduced
CRP; day 89, in parentheses: day at which Pimobendan was not administered (discontinued)
  CRP Value: (5.0) mg/dl
CRP; day 90, in parentheses: day at which Pimobendan was not administered (discontinued)
  CRP Value: (2.7) mg/dl
CRP; day 97, in parentheses: day at which Pimobendan was not administered (discontinued)
  CRP Value: (2.4) mg/dl
CRP; day 105, in parentheses: day at which Pimobendan was not administered (discontinued)
  CRP Value: (3.6) mg/dl
CRP; day 113, in parentheses: day at which Pimobendan was not administered (discontinued)
  CRP Value: (3.2) mg/dl
CRP; day 119, in parentheses: day at which Pimobendan was not administered (discontinued)
  CRP Value: (2.9) mg/dl
CRP; patient, again 1.25 mg twice a day, day 126 after initiating the administration
  CRP Value: 3.0 mg/dL
CRP; patient, again 1.25 mg twice a day, day 127 after initiating the administration
  CRP Value: 4.3 mg/dL
CRP; patient, again 1.25 mg twice a day, day 130 after initiating the administration
  CRP Value: 3.8 mg/dL
CRP; patient, again 1.25 mg twice a day, day 132 after initiating the administration
  CRP Value: 2.1 mg/dL
CRP; patient, again 1.25 mg twice a day, day 137 after initiating the administration
  CRP Value: 1.3 mg/dL
CRP; patient, oral 1.25 mg twice a day, day 12 after initiating the administration
  CRP Value: 1.7 mg/dL
CRP; patient, oral 1.25 mg twice a day, day 28 after initiating the administration
  CRP Value: 6.1 mg/dL
CRP; patient, oral 1.25 mg twice a day, day 61 after initiating the administration
  CRP Value: 3.0 mg/dL
CRP; patient, oral 1.25 mg twice a day, day 71 after initiating the administration
  CRP Value: 3.3 mg/dL
CRP; re-administration, 1.25 mg twice a day after discontinuation
  CRP value (change): again reduced
CRP; whole test period
  CRP value (overall conclusion from Table 1): reduce the CRP value to a clinically satisfactory level
Heart function
  heart function: improved
[1]
  inflammation due to the malignant articular rheumatism: recovered

— patent publication US6486160B1, “Pharmaceutical composition for modulating immunity” (Toray Industries, Inc., priority 2001, dated 2002)
